The nature of series [1]: Dynamic moisture sorption assessment. Type of series: physicochemical. The settings on record: for deliquescence: up to about 90% relative humidity at room temperature. On the procedure: Dynamic moisture sorption (DMS) assessment was performed at 25° C. using a VTI atmospheric microbalance, SGA-100 system (VTI Corp., Hialeah, Fla. 33016). […] A typical DMS analysis consisted of three or four scans: ambient to 2% relative humidity (RH), 2% RH to 90% RH, 90% RH to 5% RH at a scan rate of 5% RH/step, and, in some case a second adsorption 2% RH to 90% RH. The mass was measured every two minutes and the RH was changed to the next value (±5% RH) when the mass of the sample was stable to within 0.02% for 5 consecutive points.

A short description of series [2]: Thermogravimetric analysis (TGA). Type of series: physicochemical. The settings on record: temperatures below the melting point. On the procedure:
Thermogravimetric analysis (TGA) was performed using a TA Instruments Model Q-500 module. Data were collected and analyzed using TA Instruments Thermal Advantage for Q Series™ software. A sample weighing about 1-5 mg was placed in an aluminum pan on a platinum cradle and scanned from ambient temperature to 300° C. with a linear heating rate of 10° C./min. The balance and furnace chambers were purged with nitrogen during use. Representative TGA traces for samples of crystalline Form I and of a crystalline hydrochloride salt of compound 1 are also shown in FIGS. 2 and 7, respectively.

Series [3] concerns the target T1, human mu opioid receptor (Homo sapiens, UniProt P35372).
T1 construct: expressed in transfected cells; host or cells: CHO-K1
The experiment in a line: Human mu GTP-Eu nucleotide exchange assay (agonist mediated activation). In kind it is biochemical. The settings on record: relative to DAMGO as full agonist; read-out: intrinsic activity (IA), bound GTP-Eu relative to DAMGO (IA=100).

Series [4] concerns motility of the gastrointestinal (GI) tract. The experiment in a line: Gastrointestinal motility in animal models. In kind it is in vivo.
Series [5] deals with loperamide-induced delayed gastric emptying. The series can be described thus: Rat gastric emptying assay (reversal of loperamide-induced delay). Type of series: in vivo. The settings on record: administered orally, loperamide 1 mg/kg s.c. The protocol: Assay 3: Rat Model of In Vivo Efficacy In this assay the efficacy of test compounds was evaluated in a model of gastrointestinal transit, which evaluates peripheral activity. This study was approved by the Institutional Animal Care and Use Committee at […]. and conformed to the Guide for the Care and Use of Laboratory Animals published by the National Academy of Sciences (©1996). Test compounds were evaluated in the rat gastric emptying assay to determine their ability to reverse loperamide-induced delayed gastric emptying. Rats were fasted up overnight prior to administration of test compounds or vehicle by intravenous, subcutaneous, intramuscular or oral routes of administration at doses ranging from 0.001 to about 30 milligrams/kilogram (mg/kg). The administration of test compound was followed by subcutaneous administration of loperamide at a dose of 1 mg/kg or vehicle. […] Gastric weight was then determined after removal of the ligatures. Data was analyzed using the GraphPad Prism Software package (GraphPad Software, Inc., San Diego, Calif.). Percent reversal curves were constructed by non-linear regression analysis using the sigmoidal dose response (variable slope) model and best-fit ID50 values were calculated. […]

In series [6] the target is T1, human mu opioid receptor. The experiment in a line: Radioligand binding assay, [3H]-Diprenorphine displacement, CHO-K1 membranes.

T1 sequence (P35372 whole entry): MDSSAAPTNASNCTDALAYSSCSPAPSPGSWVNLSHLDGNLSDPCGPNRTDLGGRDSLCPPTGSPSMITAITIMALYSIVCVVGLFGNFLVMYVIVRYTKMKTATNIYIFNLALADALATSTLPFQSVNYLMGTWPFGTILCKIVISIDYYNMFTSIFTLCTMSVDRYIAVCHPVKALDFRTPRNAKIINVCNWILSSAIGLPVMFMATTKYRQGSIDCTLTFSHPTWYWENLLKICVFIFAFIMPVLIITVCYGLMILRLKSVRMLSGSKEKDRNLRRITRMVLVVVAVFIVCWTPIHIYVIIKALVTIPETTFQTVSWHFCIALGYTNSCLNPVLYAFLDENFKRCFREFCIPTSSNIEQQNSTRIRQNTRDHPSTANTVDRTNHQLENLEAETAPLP

`CCC1(CC)c2cc(C(N)=O)ccc2C[C@H](OC)[C@H]1NCC[C@H](CC1CCCCC1)C(=O)O` [crystalline compound 1, (S)-4-((2S,3S)-7-carbamoyl-1,1-diethyl-3-methoxy-1,2,3,4-tetrahydronaphthalen-2-ylamino)-2-cyclohexylmethyl-butyric acid]: in series [1] (2% to 90% relative humidity, room temperature), the “weight gain (moisture sorption)” value is “less than 2.5%”. Moreover, the deliquescence entry in series [1] is reported as “neither crystalline compound 1 nor the crystalline hydrochloride salt of compound 1 is deliquescent”.
On to `CCC1(CC)c2cc(C(N)=O)ccc2C[C@H](OC)[C@H]1NCC[C@H](CC1CCCCC1)C(=O)O` [Form I, (S)-4-((2S,3S)-7-carbamoyl-1,1-diethyl-3-methoxy-1,2,3,4-tetrahydronaphthalen-2-ylamino)-2-cyclohexylmethyl-butyric acid], for which the TGA weight loss result in series [2] is recorded as “no significant weight loss”. Also, in series [1] (40% to 75% relative humidity), the “weight gain (moisture sorption)” value is reported as “less than 1%”.
Broadly, the Ki is a dissociation constant, usually derived from enzyme kinetics or from competition with a known ligand. A higher Ki goes with weaker binding. As for `CCC1(CC)c2cc(C(N)=O)ccc2C[C@H](OC)[C@H]1NCC[C@H](CC1CCCCC1)C(=O)O` [Compound 1, (S)-4-((2S,3S)-7-carbamoyl-1,1-diethyl-3-methoxy-1,2,3,4-tetrahydronaphthalen-2-ylamino)-2-cyclohexylmethyl-butyric acid], the Emax at human mu opioid receptor [3] is -8%. For the same compound, in series [4], the “effect on motility of the gastrointestinal tract” value is reported as “increase motility of the gastrointestinal (GI) tract”. Also, in series [5], the “ID50, dose required for 50% reversal of the effects of loperamide” value worked out at 0.09 mg/kg. This compound showed a Ki at human mu opioid receptor [6] of 0.398 nM.
Turning to `CCC1(CC)c2cc(C(N)=O)ccc2C[C@H](OC)[C@H]1NCC[C@H](CC1CCCCC1)C(=O)O.Cl` [(S)-4-((2S,3S)-7-Carbamoyl-1,1-diethyl-3-methoxy-1,2,3,4-tetrahydronaphthalen-2-ylamino)-2-cyclohexylmethyl-butyric acid hydrochloride], the “appearance and flowability on exposure to humidity” value in series [1] (about 2% to about 90% relative humidity at room temperature) is “retained their appearance and flowability”. Besides, in series [1], the deliquescence entry is recorded as “neither crystalline compound 1 nor the crystalline hydrochloride salt of compound 1 is deliquescent”.

Source of the values: US8486958B2, “Crystalline forms of a 3-carboxypropyl-aminotetralin compound” (priority 2008, dated 2013).
